Like-named read-outs stand apart in the source and are kept apart here.

One may read the IC50 as the concentration at which inhibition is half-maximal.

Assay [1] has as its target BRD4 (BD1+BD2) bromodomain (Homo sapiens (Human), UniProt O60885). The experiment in a line: BRD4 binding inhibition (AlphaScreen, GST-BRD4 vs tetraacetylated histone H4 peptide). Summed up: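 AlphaScreen read after 30 min dark incubation at room temperature with glutathione acceptor/streptavidin donor beads (10 μg/ml each). The beads were added to compound plus 100 nM biotin-H4 (K5,8,12,16-acetyl) peptide and 100 nM GST-BRD4 BD1+BD2 in pH 7.4 HEPES/Tween/BSA/DTT buffer.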
(Alpha assays give light when donor and acceptor beads are brought close together.)

Assay [2] deals with acute myelogenous leukemia cells (MV-4-11 cells). The assay is described as follows: Cytotoxicity to acute myelogenous leukemia cells (MV-4-11 cells), CCK-8. The settings on record: Homo sapiens, MV4-11, 72 h.
Where [3] appears, read: GST-BRD4 (BD1+BD2) / biotinylated acetyl-histone H4 (Lys5,8,12,16) peptide, read-out: IC50, BRD4 binding inhibition.
Setting [4] is: GST-BRD4 (BD1+BD2) vs biotinylated acetyl-histone H4 peptide, AlphaScreen, read-out: BRD4 IC50.
[5] abbreviates: read-out: IC50, cytotoxicity against acute myelogenous leukemia cells.
Where [6] appears, read: read-out: MV-4-11 Cytotoxicity IC50.

On to `COCCOc1ccc2c(c1)nc(NCCCCNC(=O)OCC(C)C)c1nnc(C)n12` [Example 369, {4-[7-(2-methoxy-ethoxy)-1-methyl-[1,2,4]triazolo[4,3-a]quinoxaline-4-ylamino]-butyl}-carbamic acid isobutylester], for which the IC50 was ≤ 50 nM in assay [1] (setting [3]), 14 nM in assay [1] (setting [4]), ≤ 200 nM in assay [2] (setting [5]) and 130 nM in assay [2] (setting [6]).

On to `C=CCOC(=O)NCCCCNc1nc2cc(OCCOC)ccc2n2c(C)nnc12` [Example 370, {4-[7-(2-methoxy-ethoxy)-1-methyl-[1,2,4]triazolo[4,3-a]quinoxaline-4-ylamino]-butyl}-carbamic acid allylester], for which the values for the IC50 in assay [1] (setting [3]), in assay [1] (setting [4]) and in assay [2] (setting [6]) were ≤ 50 nM, 14 nM and 240 nM, respectively.

With `COCCOc1ccc2c(c1)nc(NCCCCNC(=O)OC1CCCC1)c1nnc(C)n12` [Example 371, {4-[7-(2-methoxy-ethoxy)-1-methyl-[1,2,4]triazolo[4,3-a]quinoxaline-4-ylamino]-butyl}-carbamic acid cyclopentylester], the IC50 is ≤ 10 nM in assay [1] (setting [3]), 7 nM in assay [1] (setting [4]), ≤ 200 nM in assay [2] (setting [5]) and 119 nM in assay [2] (setting [6]).

With `COCCOc1ccc2c(c1)nc(NCCCCNC(=O)Oc1ccccc1)c1nnc(C)n12` [Example 372, {4-[7-(2-methoxy-ethoxy)-1-methyl-[1,2,4]triazolo[4,3-a]quinoxaline-4-ylamino]-butyl}-carbamic acid phenylester], the half-inhibitory concentration (IC50) is ≤ 10 nM in assay [1] (IC50, BRD4 binding inhibition, GST-BRD4 (BD1+BD2) / biotinylated acetyl-histone H4 (Lys5,8,12,16) peptide); ≤ 200 nM in assay [2] (setting [5]); 180 nM in assay [2] (setting [6]).

`COCCOc1ccc2c(c1)nc(NCCCCNC(=O)OCc1ccccc1)c1nnc(C)n12` [Example 373, {4-[7-(2-methoxy-ethoxy)-1-methyl-[1,2,4]triazolo[4,3-a]quinoxaline-4-ylamino]-butyl}-carbamic acid benzylester]: the IC50 is ≤ 50 nM in assay [1] (setting [3]), 20 nM in assay [1] (setting [4]) and 420 nM in assay [2] (setting [6]).

Turning to `COCCOc1ccc2c(c1)nc(NCCCCNC(=O)C(C)(C)C)c1nnc(C)n12` [Example 375, {4-[7-(2-methoxy-ethoxy)-1-methyl-[1,2,4]triazolo[4,3-a]quinoxaline-4-ylamino]-butyl}-2,2-dimethyl-propionamide], the figures for the IC50 in assay [1] (setting [3]) and in assay [2] (setting [6]) were ≤ 50 nM and 400 nM, respectively.

For `COCCOc1ccc2c(c1)nc(NCCCCNC(=O)C=C(C)C)c1nnc(C)n12` [Example 378, 3-methyl-butene-2-oic acid-{4-[7-(2-methoxy-ethoxy)-1-methyl-[1,2,4]triazolo[4,3-a]quinoxaline-4-ylamino]-butyl}-amide], the IC50 is ≤ 50 nM in assay [1] (setting [3]), 14 nM in assay [1] (setting [4]) and 290 nM in assay [2] (setting [6]).

For `C/C=C/C(=O)NCCCCNc1nc2cc(OCCOC)ccc2n2c(C)nnc12` [Example 379, butene-2-oic acid{4-[7-(2-methoxy-ethoxy)-1-methyl-[1,2,4]triazolo[4,3-a]quinoxaline-4-ylamino]-butyl}-amide], the IC50 in assay [1] (setting [3]) was ≤ 50 nM; in assay [1] (setting [4]), 17 nM; in assay [2] (setting [6]), 420 nM.

On to `CCC(C)C(=O)NCCCCNc1nc2cc(OCCOC)ccc2n2c(C)nnc12` (centres unmarked) [Example 380, N-{4-[7-(2-methoxy-ethoxy)-1-methyl-[1,2,4]triazolo[4,3-a]quinoxaline-4-ylamino]-butyl}-2-methyl-butyramide], for which the concentration for half-maximal inhibition (IC50) in assay [1] (setting [3]) is ≤ 50 nM; in assay [1] (setting [4]), 13 nM; in assay [2] (setting [6]), 610 nM.

With `CCC(CC)C(=O)NCCCCNc1nc2cc(OCCOC)ccc2n2c(C)nnc12` [Example 381, 2-ethyl-N-{4-[7-(2-methoxy-ethoxy)-1-methyl-[1,2,4]triazolo[4,3-a]quinoxaline-4-ylamino]-butyl}-butyramide], the 50% inhibitory concentration (IC50) was ≤ 50 nM in assay [1] (setting [3]), 14 nM in assay [1] (setting [4]), ≤ 200 nM in assay [2] (setting [5]) and 200 nM in assay [2] (setting [6]).

(Values after patent US11028090B2 (Dong Wha Pharm. Co., Ltd., priority 2017, dated 2021).)
